Data from patent US4943581A, “Isoquinolinesulfonamides” (Hokuriku Pharmaceutical Co., Ltd., priority 1988, dated 1990).
Counter-ions that a name gives are not always drawn.

Experiments:
[1] = system: smooth muscle of the blood vessel (superior mesenteric artery); assay: Relaxation effect on smooth muscle of blood vessel (spiral specimen of superior mesenteric artery contracted with 20 mM KCl); conditions: Oryctolagus cuniculus; concentration giving 50% relaxation; contraction induced by 20 mM KCl taken as 100%; 37°±0.5° C.; rabbit superior mesenteric artery; read-out: ED50 (the source's name)
Protocol: The extracted blood vessels were cut in the usual way into the form of spirals, and a specimen of 1.5-2.5 mm in width and 20-30 mm in length was formed. The spiral specimen was suspended in 20 ml organ bath comprising Krebs-Henseleit's solution, after which a tension of 2.0-0.5 g was loaded. The nutrient solution was warmed at 37°±0.5° C. and ventilated by mixed gas of 95% oxygen and 5% carbon dioxide. The lower end was fixed, whereas the upper end was attached to a force-displacement transducer (SB-1T) manufactured by Nihon Koden Company. The change of tension was recorded isometrically. The specimen was suspended for at least 60 minutes before the test was begun, and the nutrient solution was exchanged every 15 minutes to conduct the experiment in the meantime.
The relaxation effect upon the smooth muscle of the blood vessel was tested. Previously, the spiral specimen had been contracted with 20 mM of KCl and maintained at a certain tension; thereafter the test agent was added cumulatively. Contraction induced by 20 mM KCl was taken as 100% and the relaxation effect of the test agent was represented by ED50 which was the concentration of the agent at which only 50% of the muscles remained shrunken.

[2] = biological target: T1, myosin light-chain kinase (Gallus gallus, UniProt P11799); assay: Inhibition of myosin light-chain kinase (32P incorporation from [γ-32P] ATP into myosin light chain); assay type: biochemical; conditions: enzymatic activity depression of 50%; chicken gizzard; 200 μM CaCl2, 80 ng calmodulin, pH 7.0, 30 °C
T1 construct: myosin light chain kinase (prepared from the smooth muscles of chicken gizzard); from tissue; host or cells: smooth muscle of chicken gizzard (kinase); cattle brain (calmodulin)
T1 sequence (P11799 935-1906): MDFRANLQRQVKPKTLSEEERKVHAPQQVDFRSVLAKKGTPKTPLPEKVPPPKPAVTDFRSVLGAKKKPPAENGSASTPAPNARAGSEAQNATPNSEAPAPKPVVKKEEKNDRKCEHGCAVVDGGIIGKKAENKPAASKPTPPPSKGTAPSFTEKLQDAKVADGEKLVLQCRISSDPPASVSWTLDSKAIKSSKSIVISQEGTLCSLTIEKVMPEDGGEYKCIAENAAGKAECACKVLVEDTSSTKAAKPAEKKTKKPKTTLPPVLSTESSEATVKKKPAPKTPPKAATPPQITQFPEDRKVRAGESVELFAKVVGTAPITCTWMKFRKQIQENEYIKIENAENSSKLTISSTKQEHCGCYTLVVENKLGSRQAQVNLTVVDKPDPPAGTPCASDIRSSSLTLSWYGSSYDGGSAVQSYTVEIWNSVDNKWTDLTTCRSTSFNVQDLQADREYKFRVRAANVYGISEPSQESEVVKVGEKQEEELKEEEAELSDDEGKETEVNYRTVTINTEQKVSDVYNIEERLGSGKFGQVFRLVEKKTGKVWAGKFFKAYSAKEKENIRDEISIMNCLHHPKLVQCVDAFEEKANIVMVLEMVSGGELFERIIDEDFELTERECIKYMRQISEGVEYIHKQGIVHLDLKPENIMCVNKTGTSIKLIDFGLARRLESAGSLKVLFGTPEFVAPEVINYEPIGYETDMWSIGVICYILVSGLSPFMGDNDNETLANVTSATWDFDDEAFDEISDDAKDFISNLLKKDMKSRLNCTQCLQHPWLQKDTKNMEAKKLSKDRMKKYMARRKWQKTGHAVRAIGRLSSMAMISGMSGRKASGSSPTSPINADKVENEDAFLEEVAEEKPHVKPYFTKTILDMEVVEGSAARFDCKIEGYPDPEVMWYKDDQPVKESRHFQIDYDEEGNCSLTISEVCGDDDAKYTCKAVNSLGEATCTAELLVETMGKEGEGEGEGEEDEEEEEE
Protocol: A myosin light chain of the smooth muscles of chicken gizzard was used as a substrate and the amount of radioactive phosphoric acid incorporated from [γ-32P] ATP into the substrate-protein was measured for a determination of the activity of the enzyme. The reaction solution, in an amount of 200 μl as a whole, was constituted from 25 mM of Tris-HCl(pH 7.0), 10 mM MgCl2, 40 μg of myosin light chain (obtained by preparing myosin from the smooth muscle of chicken gizzard followed by guanidine denaturization), 200 μM of CaCl2, 80 ng of calmodulin (prepared from cattle brain), myosin light chain kinase (prepared from the smooth muscles of chicken gizzard), and agents of various concentrations. The reaction was started by the addition of 20 μl of 100 μM [γ-32P] ATP at 30 ° C., and stopped by the addition of 0.5 ml of 20% TCA. After the reaction was stopped, 3 ml of 5% TCA and 0.1 ml of 1 mg/ml albumin solution were added into the reaction mixture, the resulting solution was centrifuged, and the obtained acid-insoluble protein was fixed on the bottom of a test tube. Further, the supernatant was removed, 3 ml of 5% TCA was added into the residue, and the solution was centrifuged. […] The precipitated protein was dissolved with 2 ml of 1 N NaOH, transferred to a vial containing about 10 ml of water, and measured for Cherenkov effect by a liquid scintillation counter. […]

EC50 [1]: 32 µM | IC50 [2]: 31 µM
SMILES: NCCNS(=O)(=O)c1ccc(Cl)c2ccncc12 [Example 1, N-(2-Aminoethyl)-5-chloroisoquinoline-8-sulfonamide 2 hydrochloride]
